Source: patent US20230009626A1 (ICHNOS SCIENCES S.A., priority 2018, published 2023)
Counter-ions that a name gives are not always drawn.

Target: HPK1 (MAP4K1) (Homo sapiens, UniProt Q92918)
Assay: FRET Assay for HPK1 (MAP4K1): one step binding assay, displacement of labeled tracer
Details: for inhibition at 1 µM: 1 μM compound; for inhibition at 1 µM / inhibition at 10 µM: FRET ratio 665/620, percent of control; for IC50: dose response curve, nonlinear regression; for inhibition at 10 µM: 10 μM compound
Description: FRET Assay for HPK1 (MAP4K1):
This is a one step binding assay based on the binding and displacement of the labeled tracer, where compound addition is followed by addition of the anti-GST tagged europium (Eu) as the donor and Alexa Fluor-labeled tracer as the acceptor. Simultaneous binding of both the tracer and GST-antibody to the kinase domain of HPK1 results in a high degree of FRET (fluorescence resonance energy transfer) from the anti-GST tagged europium (Eu) fluorophore to the Alexa Fluor® 647 fluorophore on the kinase tracer and this signal is reduced in presence of the inhibitor that can be measured.
Test compounds or reference compounds such as Sunitinib (Sigma) were dissolved in dimethylsulfoxide (DMSO) to prepare 10.0 mM stock solutions and diluted to the desired concentration. The final concentration of DMSO in the reaction was 3% (v/v). The assay mixture was prepared by mixing 4 nM of the Eu-Anti-GST Antibody and 10 nM MAP4K-1 enzyme in the Kinase buffer containing 50mM HEPES (pH 7.5), 10 mM MgCl2, 1 mM EGTA, 0.01% Brij-35 with or without the desired concentration of the compound. The reaction was incubated on ice for 15 mins. The pre-incubation step was followed by addition of the 20 nM Kinase Tracer 222 into the reaction mixture. After shaking for 5 min the reaction was further incubated for 1 hour at room temperature and this was kept at 4° C. and read on ARTEMIS reader as per the kit instructions (Thermo). […] The activity was calculated as percent of control reaction. IC50 values were calculated from dose response curve by nonlinear regression analysis using GraphPad Prism software.
Percentage inhibition at concentrations of 1.0 μM and 10.0 μM are given in the table along with IC50 (nM) details for selected examples.

Sequence of HPK1 (MAP4K1) (Q92918 whole entry): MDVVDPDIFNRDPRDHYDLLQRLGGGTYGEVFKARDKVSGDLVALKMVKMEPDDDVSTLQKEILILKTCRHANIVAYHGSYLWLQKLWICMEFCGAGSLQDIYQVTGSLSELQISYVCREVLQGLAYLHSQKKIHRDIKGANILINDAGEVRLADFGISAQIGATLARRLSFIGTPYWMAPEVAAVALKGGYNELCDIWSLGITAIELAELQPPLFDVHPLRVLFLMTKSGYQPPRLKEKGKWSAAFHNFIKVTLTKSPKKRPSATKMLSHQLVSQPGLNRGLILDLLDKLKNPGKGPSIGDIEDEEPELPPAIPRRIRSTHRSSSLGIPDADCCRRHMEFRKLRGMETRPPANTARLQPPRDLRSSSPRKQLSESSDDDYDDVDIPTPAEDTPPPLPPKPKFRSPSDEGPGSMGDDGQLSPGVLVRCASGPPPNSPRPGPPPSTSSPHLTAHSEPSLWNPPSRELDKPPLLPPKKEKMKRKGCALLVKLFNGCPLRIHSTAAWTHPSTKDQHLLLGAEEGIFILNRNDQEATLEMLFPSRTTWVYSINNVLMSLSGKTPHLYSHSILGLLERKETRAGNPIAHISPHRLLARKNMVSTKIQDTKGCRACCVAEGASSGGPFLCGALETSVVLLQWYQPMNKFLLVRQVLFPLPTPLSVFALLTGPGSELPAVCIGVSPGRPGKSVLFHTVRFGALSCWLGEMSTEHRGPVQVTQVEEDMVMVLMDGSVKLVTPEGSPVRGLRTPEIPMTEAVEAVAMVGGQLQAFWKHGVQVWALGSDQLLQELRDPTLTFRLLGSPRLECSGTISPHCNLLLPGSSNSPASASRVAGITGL

SMILES: C/C(Nc1ccn(C(C)C#N)n1)=C1/C(=O)Nc2cnc(-c3cnccc3C)cc21 (stereo in doubt) [Example 116]
- inhibition at 1 µM: 75.9%
- IC50: < 0.05 µM

SMILES: CN/C(=C1\C(=O)Nc2ccc(-c3c(F)cccc3OC)cc21)c1ccccc1 [Example 1, 5-(2-fluoro-6-methoxyphenyl)-3-((methylamino)(phenyl)methylene)indolin-2-one]
- inhibition at 1 µM: 69.8%
- inhibition at 10 µM: 84%
- IC50: 0.1 to 0.5 µM

SMILES: COc1cccc(F)c1-c1ccc2c(c1)/C(=C(\C)Nc1ccc(N3CCN(C)CC3)cc1)C(=O)N2 [Example 2, (Z)-5-(2-Fluoro-6-methoxyphenyl)-3-(1-((4-(4-methylpiperazin-1-yl)phenyl)amino)ethylidene)indolin-2-one]
- inhibition at 1 µM: 88.6%
- inhibition at 10 µM: 82.5%
- IC50: < 0.05 µM

SMILES: COc1cccc(F)c1-c1ccc2c(c1)/C(=C(\C)Nc1ccccc1)C(=O)N2 [Example 3, (Z)-5-(2-Fluoro-6-methoxyphenyl)-3-(1-(phenylamino)ethylidene)indolin-2-one]
- inhibition at 1 µM: 62.5%
- IC50: 0.1 to 0.5 µM

SMILES: COc1cccc(F)c1-c1ccc2c(c1)/C(=C(\C)Nc1ccc(N3CCN(C4COC4)CC3)nc1)C(=O)N2 [Example 4, (Z)-5-(2-Fluoro-6-methoxyphenyl)-3-(1-((6-(4-(oxetan-3-yl)piperazin-1-yl)pyridin-3-yl)amino)ethylidene)indolin-2-one]
- inhibition at 1 µM: 90.1%
- inhibition at 10 µM: 91%
- IC50: < 0.05 µM

SMILES: C/C(Nc1ccc(N2CCN(C3COC3)CC2)nc1)=C1/C(=O)Nc2ccc(F)cc21 [Example 5, (Z)-5-Fluoro-3-(1-((6-(4-(oxetan-3-yl)piperazin-1-yl)pyridin-3-yl)amino)ethylidene)indolin-2-one]
- inhibition at 1 µM: 76.1%
- inhibition at 10 µM: 85.5%
- IC50: 0.1 to 0.5 µM

SMILES: C/C(Nc1ccc(N2CCN(C)CC2)cc1)=C1/C(=O)Nc2ccc(F)cc21 [Example 6, (Z)-5-Fluoro-3-(1-((4-(4-methylpiperazin-1-yl)phenyl)amino)ethylidene)indolin-2-one]
- inhibition at 1 µM: 85.5%
- inhibition at 10 µM: 87.3%
- IC50: < 0.05 µM

SMILES: COc1cccc(F)c1-c1ccc2c(c1)/C(=C(\C)Nc1ccc(N(C)C(=O)CN3CCN(C)CC3)cc1)C(=O)N2 [Example 7, (Z)-N-(4-((1-(5-(2-Fluoro-6-methoxyphenyl)-2-oxoindolin-3-ylidene)ethyl)amino)phenyl)-N-methyl-2-(4-methylpiperazin-1-yl)acetamide]
- inhibition at 1 µM: 82.4%
- inhibition at 10 µM: 87.1%
- IC50: < 0.05 µM

SMILES: COc1cccc(F)c1-c1ccc2c(c1)/C(=C(\C)Nc1ccc(N3CCNCC3)cc1)C(=O)N2 [Example 8, (Z)-5-(2-Fluoro-6-methoxyphenyl)-3-(1-((4-(piperazin-1-yl)phenyl)amino)ethylidene)indolin-2-one]
- inhibition at 1 µM: 84.8%
- inhibition at 10 µM: 83.8%
- IC50: < 0.05 µM

SMILES: CC/C(Nc1ccc(N2CCN(C)CC2)cc1)=C1/C(=O)Nc2ccc(-c3c(F)cccc3OC)cc21 [Example 9, (Z)-5-(2-Fluoro-6-methoxyphenyl)-3-(1-((4-(4-methylpiperazin-1-yl)phenyl)amino)propylidene)indolin-2-one]
- inhibition at 1 µM: 84.9%
- inhibition at 10 µM: 84.4%
- IC50: < 0.05 µM

SMILES: COc1cccc(F)c1-c1ccc2c(c1)/C(=C(\C)Nc1cnn(C)c1)C(=O)N2 [Example 10, (Z)-5-(2-Fluoro-6-methoxyphenyl)-3-(1-((1-methyl-1H-pyrazol-4-yl)amino)ethylidene)indolin-2-one]
- inhibition at 1 µM: 82.6%
- inhibition at 10 µM: 88.2%
- IC50: < 0.05 µM

SMILES: COc1cccc(F)c1-c1ccc2c(c1)/C(=C(\C)Nc1ccc(N3CCN(C)CC3)cc1C)C(=O)N2 [Example 11, (Z)-5-(2-Fluoro-6-methoxyphenyl)-3-(1-((2-methyl-4-(4-methylpiperazin-1-yl)phenyl)amino)ethylidene)indolin-2-one]
- inhibition at 1 µM: 73.2%
- inhibition at 10 µM: 84.4%
- IC50: 0.1 to 0.5 µM

SMILES: COc1cc2c(cc1N/C(C)=C1\C(=O)Nc3ccc(-c4c(F)cccc4OC)cc31)CNCC2 [Example 12, (Z)-5-(2-Fluoro-6-methoxyphenyl)-3-(1-((6-methoxy-1,2,3,4-tetrahydroisoquinolin-7-yl)amino)ethylidene)indolin-2-one. PTSA salt]
- inhibition at 1 µM: 48%
- inhibition at 10 µM: 55.8%
- IC50: > 0.5 µM

SMILES: COc1cccc(F)c1-c1ccc2c(c1)/C(=C(\C)Nc1ccc(N3CCOCC3)cc1)C(=O)N2 [Example 13, (Z)-5-(2-Fluoro-6-methoxyphenyl)-3-(1-((4-morpholinophenyl)amino)ethylidene)indolin-2-one]
- inhibition at 1 µM: 73.3%
- IC50: 0.05 to 0.1 µM

SMILES: COc1cccc(F)c1-c1cc2c(cn1)NC(=O)/C2=C(/C)Nc1ccc(N2CCN(C)CC2)cc1 [Example 14, (Z)-5-(2-fluoro-6-methoxyphenyl)-3-(1-((4-(4-methylpiperazin-1-yl)phenyl)amino)ethylidene)-1H-pyrrolo[2,3-c]pyridin-2(3H)-one]
- inhibition at 1 µM: 86.3%
- inhibition at 10 µM: 88.3%
- IC50: < 0.05 µM

SMILES: COc1cccc(F)c1-c1ccc2c(c1)/C(=C(/Nc1cnn(C)c1)c1ccccc1)C(=O)N2 [Example 15, (Z)-5-(2-Fluoro-6-methoxyphenyl)-3-(((1-methyl-1H-pyrazol-4-yl)amino)(phenyl)methylene)indolin-2-one]
- inhibition at 1 µM: 85.2%
- inhibition at 10 µM: 87%
- IC50: < 0.05 µM

SMILES: COc1cccc(F)c1-c1cc2c(cn1)NC(=O)/C2=C(/C)Nc1cnn(C)c1 [Example 16, (Z)-5-(2-Fluoro-6-methoxyphenyl)-3-(1-((1-methyl-1H-pyrazol-4-yl)amino)ethylidene)-1H-pyrrolo[2,3-c]pyridin-2(3H)-one]
- inhibition at 1 µM: 85.3%
- inhibition at 10 µM: 88.9%
- IC50: < 0.05 µM

SMILES: CC/C(Nc1cnn(C)c1)=C1/C(=O)Nc2ccc(-c3c(F)cccc3OC)cc21 [Example 17, (Z)-5-(2-Fluoro-6-methoxyphenyl)-3-(1-((1-methyl-1H-pyrazol-4-yl)amino)propylidene)indolin-2-one]
- inhibition at 1 µM: 85.7%
- inhibition at 10 µM: 83.3%
- IC50: < 0.05 µM

SMILES: COc1cccc(F)c1-c1ccc2c(c1)/C(=C(\C)Nc1ccn(C)n1)C(=O)N2 [Example 18, (Z)-5-(2-Fluoro-6-methoxyphenyl)-3-(1-((1-methyl-1H-pyrazol-3-yl)amino)ethylidene)indolin-2-one]
- inhibition at 1 µM: 89.8%
- inhibition at 10 µM: 85.4%
- IC50: < 0.05 µM

SMILES: COc1cccc(F)c1-c1cc2c(cc1Cl)NC(=O)/C2=C(/C)Nc1cnn(C)c1 [Example 20]
- inhibition at 1 µM: 85.2%
- inhibition at 10 µM: 80.1%
- IC50: < 0.05 µM

SMILES: COc1cccc(F)c1-c1cc2c(cc1C)NC(=O)/C2=C(/C)Nc1cnn(C)c1 [Example 21, (Z)-5-(2-Fluoro-6-methoxyphenyl)-6-methyl-3-(1-((1-methyl-1H-pyrazol-4-yl)amino)ethylidene)indolin-2-one]
- inhibition at 1 µM: 83.1%
- inhibition at 10 µM: 80%
- IC50: < 0.05 µM

SMILES: CCOc1cccc(F)c1-c1cc2c(cn1)NC(=O)/C2=C(/C)Nc1cnn(CC)c1 [Example 22, (Z)-5-(2-Ethoxy-6-fluorophenyl)-3-(1-((1-ethyl-1H-pyrazol-4-yl)amino)ethylidene)-1H-pyrrolo[2,3-c]pyridin-2(3H)-one]
- inhibition at 1 µM: 86.6%
- inhibition at 10 µM: 90.5%
- IC50: < 0.05 µM

SMILES: C/C(Nc1cnn(C)c1)=C1/C(=O)Nc2cnc(-c3cnccc3C)cc21 [Example 23, (Z)-3-(1-((1-methyl-1H-pyrazol-4-yl)amino)ethylidene)-5-(4-methylpyridin-3-yl)-1H-pyrrolo[2,3-c]pyridin-2(3H)-one]
- inhibition at 1 µM: 84.6%
- inhibition at 10 µM: 87%
- IC50: < 0.05 µM

SMILES: C/C(Nc1cnn(C)c1)=C1/C(=O)Nc2cnc(-c3ccc(F)cc3F)cc21 [Example 24, (Z)-5-(2,4-Difluorophenyl)-3-(1-((1-methyl-1H-pyrazol-4-yl)amino)ethylidene)-1H-pyrrolo[2,3-c]pyridin-2(3H)-one]
- inhibition at 1 µM: 70.9%
- inhibition at 10 µM: 79.7%
- IC50: 0.1 to 0.5 µM

SMILES: CCOc1cccc(F)c1-c1cc2c(cn1)NC(=O)/C2=C(/C)Nc1cnn(C)c1 [Example 25, (Z)-5-(2-Ethoxy-6-fluorophenyl)-3-(1-((1-methyl-1H-pyrazol-4-yl)amino)ethylidene)-1H-pyrrolo[2,3-c]pyridin-2(3H)-one]
- inhibition at 1 µM: 87.1%
- inhibition at 10 µM: 85.3%
- IC50: < 0.05 µM

SMILES: COc1cccc(F)c1-c1cc2c(cc1F)NC(=O)/C2=C(/C)Nc1cnn(C)c1 [Example 26]
- inhibition at 1 µM: 88.8%
- inhibition at 10 µM: 93.5%
- IC50: < 0.05 µM

SMILES: COc1cccc(F)c1-c1cc2c(cn1)NC(=O)/C2=C(/C)Nc1cnn(C2COC2)c1 [Example 27, (Z)-5-(2-Fluoro-6-methoxyphenyl)-3-(1-((1-(oxetan-3-yl)-1H-pyrazol-4-yl)amino)ethylidene)-1H-pyrrolo[2,3-c]pyridin-2(3H)-one]
- inhibition at 1 µM: 88.4%
- inhibition at 10 µM: 96.3%
- IC50: < 0.05 µM
